Measurements taken from patent US20120225852A1, “USE OF STEROID COMPOUNDS” (priority 2009, published 2012).

Experiments:
[1] = tested on: Lymph node (LN) cells from unprimed DO11.10 TCR Tg mice; experiment: OVA-stimulated lymph node cell culture, T cell proliferation; format: cell-based
[2] = tested on: established MOG peptide-induced EAE; experiment: Established MOG peptide-induced EAE, treatment from day 13; format: in vivo, C57BL/6 mice
Text: (§1) Acute EAE was induced in C57BL/6 mice by immunizing the animals against the pathogenic myelin oligodendrocyte glycoprotein (MOG) peptide (amino acids 35-55). Mice were left untreated until disease symptoms were apparent (score 1-2) at around day 12. […] Mice were monitored daily in a blinded fashion for clinical symptoms (paralysis). Tissues (brain, spinal cord, DLNs) were collected in order to perform histological evaluation (staining with H&E on brain and spinal cord sections) and ex vivo cultures for measurement of T cell responses and cytokine release.

[3] = tested on: Draining lymph node cells from mice induced to develop EAE; experiment: Ex vivo cytokine secretion of draining lymph node cells to MOG35-55, mice treated from EAE onset; format: in vivo, C57BL/6 mice; settings: treatment from EAE onset
Experimental: (§2) Tests were also carried out to discover whether DHEA and its spiro-analogs were protective after the onset of experimental autoimmune encephalomyelitis (EAE). For these tests, acute EAE was induced in C57BL/6 mice, as previously described. […] Mice were monitored daily in a blinded fashion for clinical symptoms (paralysis). Tissues (brain, spinal cord, DLNs) were collected in order to perform histological evaluation (staining with H&E on brain and spinal cord sections) and ex vivo cultures for measurement of T cell responses and cytokine release.
Also tested were the cytokine secretion of lymphoid cells (T cells) to MOG35-55 peptide from the mice that had been induced to develop EAE.

[4] = tested on: Draining lymph node cells from mice induced to develop EAE; experiment: Immune responses of mice with established EAE treated from day 13 (DLN cells to MOG35-55, cell subsets); format: in vivo, C57BL/6 mice
Text: as §1

[5] = tested on: MOG peptide-induced experimental autoimmune encephalomyelitis (EAE); experiment: MOG peptide-induced EAE, treatment from the day of EAE induction; format: in vivo, C57BL/6 mice
Text: EAE is an autoimmune condition of the central nervous system (CNS) and results from infiltration of the central nervous system by destructive autoreactive T lymphocytes and subsequent demyelination and axonal and neuronal degeneration.
as §1, with “them” for “the animals”, “35-55).” for “35-55). Mice were left untreated until disease symptoms were apparent (score 1-2) at around day 12.”

[6] = tested on: purified CD4+ T cells from unprimed DO11.10 TCR Tg mice; experiment: Purified CD4+ T cells with mitomycin C-treated splenocytes and OVA peptide 323-339; format: cell-based; settings: OVA peptide 323-339; FIG. 2
Text: (§3) The decreased proliferative response of CD4^+ T cells was not due to increased cell death as evident by similar numbers of CD4^+ 7AAD^− cells in all cultures after flow-cytometric analysis (FIG. 4).

EAE = EAE after cessation of 15 days of treatment, 45 additional days of monitoring; format: in vivo, C57BL/6 mice
Text: The mice continued to be monitored daily for clinical signs of EAE for 45 additional days thereafter.

[7] = tested on: response to OVA in EAE-induced mice; experiment: EAE mice treated for 15 days, then immunized with OVA/CFA; format: in vivo, C57BL/6 mice
Experimental: Treatment stopped and mice were then injected with OVA/CFA (Complete Freund's Adjuvant).
Instead, the response to a new antigen that the mice are exposed to is enhanced.

[8] = tested on: allergic airway inflammation; experiment: Mouse model of allergic asthma (OVA/alum sensitization, aerosolized OVA); format: in vivo, BALB/c mice
Experimental: BALB/c mice were sensitized with 0.01 mg chicken ovalbumin (OVA) in 0.2 ml alum intraperitoneally on days 0 and 12, and were exposed to aerosolized OVA (5% for 20 min) on days 18-20.

naïve CD4+ T cells = experiment: Naive CD4+ T cells under Treg cell generating conditions; format: cell-based
[9] = tested on: experimental autoimmune encephalomyelitis (EAE); experiment: MOG peptide-induced EAE, treatment from the day of EAE onset; format: in vivo, C57BL/6 mice; settings: 2 mg/mouse i.p. daily from EAE onset until day 26
Experimental: as §2

[10] = tested on: purified CD4+ T cells from unprimed BALB/c mice; experiment: Purified CD4+ T cells stimulated with α-CD3/α-CD28; format: cell-based; settings: non antigen-specific stimulation; FIG. 3
Text: as §3

[11] = tested on: ongoing EAE in recipient mice; experiment: Adoptive transfer of DLN cells from treated EAE donors into recipients with ongoing EAE; format: in vivo
Text: The donor DLN cells were obtained on day 17, which is the peak of disease for control mice. This protection was observed until day 28-30 when the mice were euthanized.

[12] = tested on: EAE in C57BL/6 Rag−/− recipients; experiment: Adoptive transfer of CD4+ T cells from treated EAE donors into C57BL/6 Rag-/- recipients; format: in vivo, C57BL/6 Rag−/− mice
[13] = 2 mg/mouse i.p. daily from EAE induction, in comparison to the control, FIG. 7

Structure (SMILES): C[C@]12CC[C@H](O)CC1=CC[C@@H]1[C@@H]2CC[C@]2(C)C(=O)CC[C@@H]12 [DHEA, dehydroepiandrosterone]
- proliferation of the T cells that respond to the antigen ([1]; LN cells stimulated with OVA, vs control RPMI, FIG. 1): significantly decreased
- effect on T cell responses in general ([1]; overall conclusion of Example 1 (FIGS. 1-4)): immunosuppressive effect
- clinical course ([2]; 2 mg/mouse i.p. daily from day 13, FIG. 16): significant improvement
- mean maximum score ([2]; 2 mg/mouse i.p. daily from day 13, FIG. 17): decrease
- inflammation in the spinal cord ([2]; 2 mg/mouse i.p. daily from day 13, FIG. 18): decreased inflammation
- degree of paralysis ([2]; 2 mg/mouse i.p. daily from day 13 until day 26-28): significantly decreased
- ongoing MOG peptide-induced EAE ([2]; overall conclusion, treatment from day 13): suppressed
- amounts of IL-10 produced ([3]; FIG. 13a): greatly increased
- secretion of IFN-γ ([3]; FIG. 13b): substantially decreased
- secretion of IL-17 ([3]; FIG. 13c): substantially decreased
- pathogenic immune response and symptoms ([4]; overall conclusion, mice with ongoing EAE): significantly suppressed
- proliferation to MOG35-55 peptide ([4]; treatment from day 13, FIG. 19a): significantly decreased
- amounts of IFN-γ produced ([4]; treatment from day 13, FIG. 19b): substantially decreased
- amounts of IL-17 produced ([4]; treatment from day 13, FIG. 19c): substantially decreased
- IL-10+ Treg cells ([4]; treatment from day 13, FIG. 20): significantly increased
- secretion of IL-10 ([4]; treatment from day 13, FIG. 19d): increased
- degree of paralysis ([5]; 2 mg/mouse i.p. daily from EAE induction until day 26, vs PBS): decreased
- clinical course ([5]; 2 mg/mouse i.p. daily from EAE induction until day 26, FIG. 6): improvement
- mean maximum score ([5]; 2 mg/mouse i.p. daily from EAE induction until day 26, FIG. 7): decrease
- incidence of disease [5, 13]: low incidence
- onset of disease [5, 13]: delayed onset
- inflammation in the spinal cord ([5]; 2 mg/mouse i.p. daily from EAE induction, H&E, FIG. 8): decreased inflammation
- protection against MOG peptide-induced EAE ([5]; overall conclusion, treatment from EAE induction): conferred protection
- proliferation [6]: significantly decreased
- secretion of IFN-γ [6]: significantly decreased
- secretion of IL-2 [6]: significantly decreased
- protection from EAE development after cessation of treatment (EAE; treated 15 days from around day 13, monitored 45 additional days, FIGS. 34 and 35): remained protected
- disease score after cessation of treatment (EAE; treated 15 days, monitored 45 additional days, vs control mice): remained unchanged
- production of IFN-γ ([7]; after OVA/CFA immunization): increased
- T cell response to OVA ex vivo (3H-Thymidine incorporation) ([7]; after OVA/CFA immunization, FIG. 40): substantially increased
- EAE phenotype after end of treatment and OVA/CFA injection ([7]; in comparison to control mice): stable phenotype without any deterioration
- protection from EAE ([7]; treated 15 days from shortly after disease onset, then OVA/CFA): clearly protected
- levels of OVA-specific IgE ([8]; 2 mg/mouse): significantly decreased
- levels of OVA-specific IgG1 ([8]; 2 mg/mouse): significantly decreased
- levels of OVA-specific IgG2a ([8]; 2 mg/mouse): significantly decreased
- numbers of CD3+CD4+ CD25+ Foxp3+ T cells (T regulatory cells) ([8]; 2 mg/mouse): substantially increased
- numbers of suppressive CD11c+PDCA-1+ plasmacytoid dendritic cells (pDCs) ([8]; 2 mg/mouse): substantially increased
- numbers of eosinophils in the bronchoalveolar lavage (BAL) ([8]; 2 mg/mouse on days 0,1,2,12,13,14,18,19,20, vs PBS-treated mice, FIG. 14a): significantly decreased
- numbers of lymphomononuclear cells in the bronchoalveolar lavage (BAL) ([8]; 2 mg/mouse, vs PBS-treated mice, FIG. 14a): significantly decreased
- lung leukocytic infiltration ([8]; 2 mg/mouse, FIG. 14b): significantly decreased
- OVA-specific T cell proliferation ([8]; draining lymph nodes, FIG. 14c): significantly decreased
- allergic airway inflammation, Th2 responses and B cell responses ([8]; overall conclusion of Example 3): suppress
- proliferation (naïve CD4+ T cells; Treg cell generating conditions, 5 days, FIG. 39): increased
- number of Foxp3+ Treg cells (naïve CD4+ T cells; rIL-2, with or even without rTGF-β1, 5 days, FIG. 38): significant increase
- degree of paralysis [9]: decreased
- clinical course ([9]; FIG. 11): improvement/reversal
- mean maximum score ([9]; FIG. 12): decrease
- effect on α-CD3/α-CD28 stimulated CD4+ T cells [10]: same suppressive effect
- recovery of recipients ([11]; DLN cell transfer, vs PBS-treated donors, FIG. 24): rapid recovery
- mean maximum disease score ([11]; DLN cell transfer, vs PBS-treated donors, FIG. 25): significant reduction
- EAE development in recipients ([11]; DLN cells of donors treated days 12-17, vs DLN cells from PBS-treated donors, FIG. 24): confer suppression
- ex vivo proliferation to MOG35-55 ([11]; DLN cells of recipients, FIG. 26a): significantly decreased
- levels of supernatant IFN-γ ([11]; DLN cells of recipients, FIG. 26b): decreased levels
- levels of supernatant IL-17 ([11]; DLN cells of recipients, FIG. 26c): decreased levels
- recruitment of CD11c+ dendritic cells ([11]; draining lymph nodes of recipients, FIG. 27a): substantially decreased
- recruitment of IL-17 secreting T cells ([11]; draining lymph nodes of recipients, FIG. 27b): substantially decreased
- recruitment of CD4+ Foxp3+ regulatory T cells ([11]; draining lymph nodes of recipients, FIG. 27c): increased
- ex vivo proliferation to MOG35-55 ([12]; DLN cells of Rag−/− recipients, FIG. 33a): substantially decreased
- production of IFN-γ ([12]; DLN cells of Rag−/− recipients, FIG. 33b): decreased production
- production of IL-17 ([12]; DLN cells of Rag−/− recipients, FIG. 33c): decreased production
- EAE scores induced in recipients ([12]; after pertussis toxin injections, FIGS. 31 and 32): very low EAE scores
